Here are results for 17 compounds from ChEMBL document CHEMBL1138236, “Novel aminophenyl benzamide-type histone deacetylase inhibitors with enhanced potency and selectivity” (J Med Chem, 2007).

Structures are written as SMILES. Where only a bound is given, the exact number is not on record here.

One assay addresses Histone deacetylase 2 (Homo sapiens, UniProt Q92769).
Another assay has as its target Histone deacetylase 1 (Homo sapiens, UniProt Q13547).
The next assay deals with T1, Histone deacetylase 8 (Homo sapiens, UniProt Q9BY41).
T1 sequence (Q9BY41 whole entry): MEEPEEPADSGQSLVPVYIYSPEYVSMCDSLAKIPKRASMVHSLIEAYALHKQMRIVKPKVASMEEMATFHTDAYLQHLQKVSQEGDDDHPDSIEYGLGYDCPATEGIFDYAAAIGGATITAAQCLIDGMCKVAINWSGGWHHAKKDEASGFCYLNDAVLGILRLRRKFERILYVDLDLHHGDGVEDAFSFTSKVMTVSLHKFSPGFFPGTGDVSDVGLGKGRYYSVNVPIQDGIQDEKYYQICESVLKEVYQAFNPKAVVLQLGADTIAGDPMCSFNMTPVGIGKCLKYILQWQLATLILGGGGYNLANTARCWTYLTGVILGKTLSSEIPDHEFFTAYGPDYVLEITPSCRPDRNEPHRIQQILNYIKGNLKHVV
Description: Inhibition of human recombinant HDAC8.

Assay [1] is described as follows: Cytotoxicity against human mammary epithelial cells by MTT assay. Type of assay: cell-based. Particulars: Epithelial cell. In general terms: Formazan colour is commonly taken as a measure of viable cells.
The subject of the next assay is HCT-116. Description: Cytotoxicity against human HCT116 cells by MTT assay. The class given is functional, cell-based.
The target in the next assay is Histone deacetylase. Description: Inhibition of HDAC in 293T cells. The class given is cell-based, Homo sapiens.
For the next assay, the target named is Histone deacetylase 3 (Homo sapiens, UniProt O15379). Description: Inhibition of human recombinant HDAC3.
Sequence of Histone deacetylase 3 (O15379 whole entry): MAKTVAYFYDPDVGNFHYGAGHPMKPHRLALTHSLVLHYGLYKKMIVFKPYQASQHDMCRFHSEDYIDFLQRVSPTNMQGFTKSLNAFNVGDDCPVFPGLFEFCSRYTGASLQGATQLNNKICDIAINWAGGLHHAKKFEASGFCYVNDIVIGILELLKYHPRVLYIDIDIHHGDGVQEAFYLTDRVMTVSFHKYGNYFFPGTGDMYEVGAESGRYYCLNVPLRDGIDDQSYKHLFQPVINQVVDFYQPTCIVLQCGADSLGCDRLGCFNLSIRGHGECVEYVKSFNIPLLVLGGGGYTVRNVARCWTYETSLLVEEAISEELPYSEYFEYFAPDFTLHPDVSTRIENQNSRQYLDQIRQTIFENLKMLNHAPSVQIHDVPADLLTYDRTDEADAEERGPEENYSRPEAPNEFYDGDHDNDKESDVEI

Sequence of Histone deacetylase 1 (Q13547 whole entry): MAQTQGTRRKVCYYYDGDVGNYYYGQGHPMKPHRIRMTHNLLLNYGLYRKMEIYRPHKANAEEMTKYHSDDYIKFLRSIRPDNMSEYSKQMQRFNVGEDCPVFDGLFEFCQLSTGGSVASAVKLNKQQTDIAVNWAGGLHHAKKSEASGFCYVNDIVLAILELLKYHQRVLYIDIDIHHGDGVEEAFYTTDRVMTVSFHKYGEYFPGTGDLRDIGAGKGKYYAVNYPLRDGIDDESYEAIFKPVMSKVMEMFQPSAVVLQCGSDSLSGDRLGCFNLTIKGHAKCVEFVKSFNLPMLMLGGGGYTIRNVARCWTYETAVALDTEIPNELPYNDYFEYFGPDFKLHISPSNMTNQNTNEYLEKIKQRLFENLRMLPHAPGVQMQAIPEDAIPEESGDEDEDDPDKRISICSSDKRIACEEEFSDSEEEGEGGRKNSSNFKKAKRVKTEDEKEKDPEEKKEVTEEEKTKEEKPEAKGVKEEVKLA
Sequence of Histone deacetylase 2 (Q92769 whole entry): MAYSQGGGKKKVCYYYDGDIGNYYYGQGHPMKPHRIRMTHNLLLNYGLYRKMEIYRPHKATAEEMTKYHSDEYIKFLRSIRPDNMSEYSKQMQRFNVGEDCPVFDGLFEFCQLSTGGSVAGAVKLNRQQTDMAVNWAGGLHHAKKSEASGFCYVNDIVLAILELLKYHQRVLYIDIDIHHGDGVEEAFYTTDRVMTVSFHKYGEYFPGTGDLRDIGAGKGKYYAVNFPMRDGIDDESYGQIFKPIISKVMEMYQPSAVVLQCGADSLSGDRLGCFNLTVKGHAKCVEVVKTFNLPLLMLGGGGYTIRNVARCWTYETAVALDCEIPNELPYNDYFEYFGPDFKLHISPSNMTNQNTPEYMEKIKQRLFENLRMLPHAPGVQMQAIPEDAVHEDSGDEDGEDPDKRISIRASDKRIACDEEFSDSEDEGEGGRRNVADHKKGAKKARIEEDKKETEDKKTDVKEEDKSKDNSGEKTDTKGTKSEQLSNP
Description for Histone deacetylase 1: Inhibition of human recombinant HDAC1
Description for Histone deacetylase 2: Inhibition of human recombinant HDAC2

The IC50 is the concentration that gives 50% inhibition. With `COc1ccc(NCc2ccc(C(=O)Nc3ccc(-c4cccs4)cc3N)cc2)cc1OC`, the IC50 at Histone deacetylase 2 and at Histone deacetylase 1 was above 10000 nM each time.

For the compound `COc1ccc(NCc2ccc(C(=O)Nc3cc(-c4cccs4)ccc3O)cc2)cc1OC`, the 50% inhibitory concentration (IC50) was found to be 60 nM against Histone deacetylase 2 and 40 nM at Histone deacetylase 1.

Take `COc1ccc(NCc2ccc(C(=O)Nc3cc(-c4cc5ccccc5s4)ccc3N)cc2)cc1OC`: the IC50 against Histone deacetylase 2 and against Histone deacetylase 1 was above 10000 nM throughout.

Regarding `CC(=O)Nc1ccc(C(=O)Nc2cc(-c3cccs3)ccc2N)cc1`, the IC50 was above 20 µM at Histone deacetylase 8, above 50 µM in assay [1] and 500 nM with HCT-116.

For `O=C(/C=C/c1ccc(CN(CCO)CCc2c[nH]c3ccccc23)cc1)NO` [DACINOSTAT], the figures for the IC50 (in assay [1]; in the assay with HCT-116) were 1 µM and below 50 nM, respectively.

Regarding `COc1ccc(NCc2ccc(C(=O)Nc3ccccc3N)cc2)cc1OC`, the IC50 stood at 500 nM against Histone deacetylase 2 and 440 nM against Histone deacetylase 1.

On Histone deacetylase 2, `COc1ccc(NCc2ccc(C(=O)Nc3cc(-c4ccsc4)ccc3N)cc2)cc1OC` registered an IC50 of 60 nM.

Regarding `COc1ccc(NCc2ccc(C(=O)Nc3cc(-c4ccccc4)ccc3N)cc2)cc1OC`, it took 100 nM to reach half-maximal inhibition at Histone deacetylase 2 (IC50).

As to `Nc1ccc(-c2cccs2)cc1NC(=O)c1ccc2nccnc2c1`, the IC50 on Histone deacetylase 8 is above 20 µM; on Histone deacetylase 2 it was 200 nM; in assay [1], 26 µM; against Histone deacetylase, 0.9 µM; at Histone deacetylase 3 it was above 20 µM; against Histone deacetylase 1, 60 nM. Besides, the IC50 with HCT-116 came to 900 nM.

For the compound `COc1ccc(C(=O)Nc2cc(-c3cccs3)ccc2N)cc1`, the IC50 at Histone deacetylase 8 is above 20 µM; at Histone deacetylase 2, 200 nM; in assay [1] it was above 50 µM; at Histone deacetylase, 0.15 µM; at Histone deacetylase 3, above 20 µM; against Histone deacetylase 1, 50 nM. Besides, the half-inhibitory concentration (IC50) in the assay with HCT-116 came to 400 nM.

As for `Nc1ccccc1NC(=O)c1ccc2nccnc2c1`, the IC50 at Histone deacetylase 8 is above 20 µM; at Histone deacetylase 2, 2000 nM; in assay [1] it was above 50 µM; at Histone deacetylase, 3 µM; at Histone deacetylase 3 it was above 20 µM; at Histone deacetylase 1, 2000 nM. The compound further yielded a half-maximal inhibitory concentration (IC50) with HCT-116 of 11000 nM.

In the case of `COc1ccc(NCc2ccc(C(=O)Nc3cc(-c4ccoc4)ccc3N)cc2)cc1OC`, the IC50 came to 70 nM against Histone deacetylase 2 and 50 nM on Histone deacetylase 1.

As for `COc1ccc(NCc2ccc(C(=O)Nc3ccccc3O)cc2)cc1OC`, the IC50 on Histone deacetylase 2 turned out to be 200 nM.

With `COc1ccc(NCc2ccc(C(=O)Nc3cc(-c4cccs4)ccc3N)cc2)cc1OC`, the IC50 on Histone deacetylase 2 is 80 nM; on Histone deacetylase 1, 50 nM.

As to `CC(=O)Nc1ccc(C(=O)Nc2ccccc2N)cc1` [TACEDINALINE], the IC50 in assay [1] was above 50 µM; in the assay on HCT-116, 4000 nM.

Consider `Nc1ccc(-c2cccs2)cc1NC(=O)c1ccc(CNC(=O)OCc2cccnc2)cc1`, for which, at Histone deacetylase 2, the concentration for half-maximal inhibition (IC50) was found to be 100 nM.

`COc1ccc(C(=O)Nc2ccccc2N)cc1`: the IC50 on Histone deacetylase 8 is above 20 µM; against Histone deacetylase 2, 900 nM; in assay [1] it was above 50 µM; on Histone deacetylase, 3 µM; at Histone deacetylase 3, 1.4 µM; at Histone deacetylase 1, 2000 nM. Moreover, the IC50 in the assay with HCT-116 is 10000 nM.
